Values joined by “and” are separate entries in the source; they are usually repeats but may differ in a detail not shown here. Equal entries are not always repeated. Where two headings read alike, the source gives them in different places.
Legend:
[1] = target: T1, factor XIIa (Homo sapiens, UniProt P00748); details: read-out: IC50 factor XIIa (aminotriazole-based inhibitors); cited from earlier work
[2] = target: T1, factor XIIa; assay: Inhibition of factor XIIa: kinetics of hydrolysis of chromogenic substrate S2302; format: biochemical; details: for IC50: substrate S2302, competitive inhibitor fit; for inhibition at 30 µM: read-out: Inhibition Activity at 30 µM, %; for Selectivity for factor XIIa over coagulation factors Xa and XIa: from IC50 values of Figure 5
Method: (§1) The inhibition of factor XIIa by the synthesized compounds was studied by measuring the kinetics of hydrolysis of specific substrate S2302 (Chromogenics, Italy) in the presence of these compounds. A buffer containing 140 mM NaCl, 20 mM HEPES and 0.1% PEG 6000 (pH 7.4) was placed in the wells of a 96-well plate, followed by the addition of factor XIIa (final concentration 5 nM), solution of the test compound in DMSO (final concentration 30 μM), and substrate S2302 (Chromogenics, Italy) (final concentration 200 μM). The DMSO content in the well was no more than 2%. The kinetics of the formation of pNa were measured using a THERMOmax Microplate Reader (Molecular Devices Corporation, USA) by the absorption of light with a wavelength of 405 nm. The initial rate of substrate degradation was determined from the initial slope of the pNa formation curve. The rate of substrate degradation by the enzyme in the presence of the inhibitor was expressed as a percentage relative to the rate of substrate degradation in the absence of the inhibitor. The data obtained were processed using the GraphPad Prism and OriginPro 8 software. Ratio of specific substrate cleavage (S2302 for factor XIIa and S2765 for factor Xa) rate in presence of different inhibitor concentrations to these and the cleavage rate without inhibitor were determined to calculate IC50 values. Received curves (see Figures S18–S22) were approximated with the assumption that these were competitive inhibitors.

[3] = target: factor Xa (Homo sapiens, UniProt P00742); assay: Inhibition of factor Xa: cleavage rate of specific substrate S2765; format: biochemical; details: >30 = no activity at 30 µM, IC50 not measured
Method: as §1
(§2) Figure 5 Structures of four identified inhibitors of the coagulation factor XIIa. IC50 values are shown for three coagulation factors: Xa, XIa, and XIIa. […] So, they are marked with ‘>30’ in a column with activity values. TEXT PRINTED IN THE PICTURE: 30901: IC50, μM: XIIa 19.67±1.31; IC50, μM: XIa > 30.00; IC50, μM: Xa 12.40±0.38 | 41453: IC50, μM: XIIa 25.88±1.77; IC50, μM: XIa > 30.00; IC50, μM: Xa > 30.00 | 225006: IC50, μM: XIIa 7.85±0.34; IC50, μM: XIa > 30.00; IC50, μM: Xa > 30.00 | 225738: IC50, μM: XIIa 12.95±0.32; IC50, μM: XIa > 30.00; IC50, μM: Xa > 30.00

[4] = target: factor XIa (Homo sapiens, UniProt P03951); assay: Inhibition of factor XIa (off-target selectivity testing); format: biochemical; details: >30 = no activity at 30 µM, IC50 not measured
Method: At the first stage, virtual screening based on docking was carried out by the SOL program and the subsequent calculation of the enthalpy of protein–ligand binding by the PM7+COSMO method for the focused library of compounds selected from the database of druglike substances of the Department of Organic Chemistry of the Voronezh State University (VSU). This library consisted of 59 compounds, which were all previously tested against coagulation factors Xa and XIa. Among them, there were a few confirmed inhibitors of these proteins with micromolar activity. The presence of inhibition data for these off-targets allowed us to use selectivity data after the screening phase and better understand the quality of the identified hit series. Screening and testing the selected compounds from the focused library also helped clarify the threshold values of the scoring function of the SOL program, the binding enthalpy and, accordingly, adjust the screening process for further iterations.Virtual screening with the SOL program was carried out for 326 three-dimensional molecules. The original base of 59 ligands was expanded taking into account a few protomers, isomers, and conformers of these molecules. At the first stage, the selection of compounds was carried out based on the SOL scoring function. […] Note that the SOL scoring value for the docking of the original ligand (PDB ID 6B74) was −5.19 kcal/mol. Thus, the selection criterion covered a wider range of scoring values.
as §2

[5] = % of enzyme inhibition at 30 µM, averaged over three measurements

factor Xa, sequence (P00742 235-488 limits assumed): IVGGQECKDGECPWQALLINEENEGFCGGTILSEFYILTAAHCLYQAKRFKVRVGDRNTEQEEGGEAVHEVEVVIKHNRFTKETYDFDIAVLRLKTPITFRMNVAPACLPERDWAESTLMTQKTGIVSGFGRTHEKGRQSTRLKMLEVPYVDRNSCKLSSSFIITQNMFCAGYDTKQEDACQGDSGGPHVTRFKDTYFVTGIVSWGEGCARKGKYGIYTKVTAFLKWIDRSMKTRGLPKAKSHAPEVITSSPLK
factor Xa, sequence (P00742 41-179 partner limits assumed): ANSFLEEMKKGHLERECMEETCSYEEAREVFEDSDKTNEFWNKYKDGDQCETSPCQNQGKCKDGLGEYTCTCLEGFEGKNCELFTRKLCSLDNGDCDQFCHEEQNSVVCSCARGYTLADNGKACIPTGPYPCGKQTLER
T1 sequence (P00748 373-615 limits assumed, other chains not shown): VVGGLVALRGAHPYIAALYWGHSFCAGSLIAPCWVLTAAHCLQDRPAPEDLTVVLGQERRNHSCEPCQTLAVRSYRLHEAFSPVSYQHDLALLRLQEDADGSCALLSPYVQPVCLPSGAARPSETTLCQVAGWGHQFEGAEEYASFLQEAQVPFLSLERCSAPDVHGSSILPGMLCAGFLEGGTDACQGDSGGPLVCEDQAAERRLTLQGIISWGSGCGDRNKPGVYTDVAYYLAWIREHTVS
factor XIa, sequence (P03951 388-625 limits assumed): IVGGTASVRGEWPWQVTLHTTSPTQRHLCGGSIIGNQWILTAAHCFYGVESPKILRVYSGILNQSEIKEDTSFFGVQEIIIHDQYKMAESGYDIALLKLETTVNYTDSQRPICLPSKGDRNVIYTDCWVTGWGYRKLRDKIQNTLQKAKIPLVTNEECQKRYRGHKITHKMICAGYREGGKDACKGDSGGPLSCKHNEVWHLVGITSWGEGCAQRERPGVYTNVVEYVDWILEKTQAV
factor XIa, sequence (P03951 19-387 partner limits assumed): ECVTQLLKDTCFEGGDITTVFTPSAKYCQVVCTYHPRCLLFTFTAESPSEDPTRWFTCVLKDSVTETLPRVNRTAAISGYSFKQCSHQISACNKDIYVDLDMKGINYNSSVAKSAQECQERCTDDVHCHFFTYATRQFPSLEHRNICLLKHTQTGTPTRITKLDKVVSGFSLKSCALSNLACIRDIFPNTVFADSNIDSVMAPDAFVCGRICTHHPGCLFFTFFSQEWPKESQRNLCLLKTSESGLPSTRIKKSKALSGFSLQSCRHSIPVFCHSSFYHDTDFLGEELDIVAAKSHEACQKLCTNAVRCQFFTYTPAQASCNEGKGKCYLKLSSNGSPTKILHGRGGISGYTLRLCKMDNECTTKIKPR

| Compound | IC50 [2] | IC50 [3] | IC50 [4] | inhibition at 30 µM [2, 5] | further results |
| --- | --- | --- | --- | --- | --- |
| Nc1nc(-c2cnc3ccccc3n2)nn1C(=O)c1cccc2ccccc12 [aminotriazole_39b] |  |  |  |  | IC50 [1]: 0.007 µM |
| COc1cc2c3c(c1)C1(C(=O)N3C(C)(C)CC2C)C(C#N)=C(N)Oc2c1c(=O)oc1ccccc21 (centres unmarked) [compound 30901, 2-amino-8’-methoxy-4’,4’,6’-trimethyl-2’,5-dioxo-5’,6’-dihydro-2’H,4’H,5H-spiro[pyrano[3,2-c]chromene-4,1’-pyrrolo[3,2,1-ij]quinoline]-3-carbonitrile] | 19.7 ± 1.31 µM | 12.4 ± 0.38 µM | > 30 µM |  |  |
| CCc1cc2c3c(c1)C1(C(=O)N3C(C)(C)CC2C)C(C#N)=C(N)Oc2c1c(=O)[nH]c1ccccc21 (centres unmarked) [compound 38292, 2-Amino-8’-ethyl-4’,4’,6’-trimethyl-2’,5-dioxo-5,5’,6,6’-tetrahydro-4’H-spiro[pyrano[3,2-c]quinoline-4,1’-pyrrolo[3,2,1-ij]quinoline]-3-carbonitrile] |  |  |  | 10% |  |
| COc1ccc(C2C(C#N)=C(N)Oc3c2c(=O)[nH]c2ccccc32)cc1OC (centres unmarked) [compound 38756, 2-Amino-4-(3,4-dimethoxyphenyl)-5-oxo-5,6-dihydro-4H-pyrano[3,2-c]quinoline-3-carbonitrile] |  |  |  | 15% |  |
| CC1(C)CC2(CCCCC2)N2C(=O)C3(NCCc4c3[nH]c3ccccc43)c3cccc1c32 (stereo not drawn) [compound 41453, 6’,6’-Dimethyl-2,3,4,5’,6’,9-hexahydrodispiro[β-carboline-1,1’-pyrrolo[3,2,1-ij]quinoline-4’,1’’-cyclohexan]-2’-one] | ~26 µM and 25.9 µM | > 30 µM | > 30 µM |  | Selectivity for factor XIIa over coagulation factors Xa and XIa [2]: questionable |
| Nc1c2c(nc3oc(-c4ccccc4Cl)cc13)CCCC2=O [compound 224533, 4-Amino-2-(2-chlorophenyl)-7,8-dihydrofuro[2,3-b]quinolin-5(6H)-one] |  |  |  |  | inhibition at 30 µM [2]: 2% |

Second part, led by results:

| IC50 [2] | IC50 [3] | IC50 [4] | inhibition at 30 µM [2, 5] | Compound | further results |
| --- | --- | --- | --- | --- | --- |
|  |  |  | 0% | CC1CCc2nc3oc(-c4ccccc4)cc3c(N)c2C1 (centres unmarked) [compound 224530, 6-Methyl-2-phenyl-5,6,7,8-tetrahydrofuro[2,3-b]quinolin-4-amine] |  |
|  |  |  | 0% | COc1ccc(C(=O)c2cc3cc4c(cc3oc2=O)N(C)C(C)(C)CC4C)cc1 (centres unmarked) [compound 224870, 3-(4-Methoxybenzoyl)-6,8,8,9-tetramethyl-6,7,8,9-tetrahydro-2H-pyrano[3,2-g]quinolin-2-one] |  |
| 7.9 µM and 7.85 µM | > 30 µM | > 30 µM | > 50% | CC1CC(C)(C)N(C)c2cc3oc(=O)c(-c4cc(=O)[nH]c(N5CCOCC5)n4)cc3cc21 (centres unmarked) [compound 225006, 6,8,8,9-Tetramethyl-3-(2-morpholin-4-yl-6-oxo-1,6-dihydropyrimidin-4-yl)-6,7,8,9-tetrahydro-2H-pyrano[3,2-g]quinolin-2-one] | Selectivity for factor XIIa over coagulation factors Xa and XIa [2]: selectively inhibit |
|  |  |  | 0% | COc1cc2c3c(c1)C(=NNC(=N)N)C(=O)N3C(C)(C)C=C2C [compound 225635, 2-(8-Methoxy-4,4,6-trimethyl-2-oxo-4H-pyrrolo[3,2,1-ij]quinolin-1(2H)-ylidene)hydrazinecarboximidamide] |  |
|  |  |  | 27% | COc1cc2c3c(c1)C(=NNC(=N)N)C(=O)N3C(C)(C)C=C2CN1CCN(c2ccc(F)cc2)CC1 [compound 225638, 2-[6-{[4-(4-Fluorophenyl)piperazin-1-yl]methyl}-8-methoxy-4,4-dimethyl-2-oxo-4H-pyrrolo[3,2,1-ij]quinolin-1(2H)-ylidene]hydrazinecarboximidamide] |  |
| 13 ± 0.32 µM | > 30 µM | > 30 µM | > 50% | COC(=O)c1c(C)[nH]c(-c2ccccc2)c1C1C(=O)N2c3c(cc(OC)cc31)C(C)=CC2(C)C (centres unmarked) [compound 225738, methyl 4-(8-methoxy-4,4,6-trimethyl-2-oxo-1,2-dihydro-4H-pyrrolo[3,2,1-ij]quinolin-1-yl)-2-methyl-5-phenyl-1H-pyrrole-3-carboxylate] | Selectivity for factor XIIa over coagulation factors Xa and XIa [2]: selectively inhibit |
|  |  |  | 0% | COc1cc2c3c(c1)/C(=N/OC(=O)c1ccccc1)C(=O)N3C(C)(C)C=C2C [compound 225746, 8-Methoxy-4,4,6-trimethyl-4H-pyrrolo[3,2,1-ij]quinoline-1,2-dione1-(O-benzoyloxime)] |  |

Reference: PMC8876603, “New Blood Coagulation Factor XIIa Inhibitors: Molecular Modeling, Synthesis, and Experimental Confirmation” (Molecules, 2022)
